# Laboratory results as given in patent publication US20160089391A1, “Molecular Targets for Cardiovascular Disease” (Temple University-of the Commonwealth System of Higher …, priority 2014, published 2016).
# Legend:
# Format in all cases: cell-based, human
# [1] = tested on: calpain; assay: t-BOC calpain activity assay in intact HAECs; details: HAECs; DL-Hcy 500 μmol/L and/or D-Glu 25 mmol/L for 48 hrs
# Procedure: (FIG. 5A). In situ .O2^− production in aorta. (FIG. 5B). Nitrotyrosine (3-NT) levels. Aortic paraffin-cross sections (7 μm) from Cbs^−/+ mice were stained with 3-NT antibody and 3,3′-diaminobenzidine (DAB, brown). (FIG. 5C). Urinary 8-isoprostane levels. At the age of 8-week, Cbs^+/+ and Cbs^−/+ mice were fed with a high methionine diet (HM, methionine: 2% w/w) for 8 weeks, and/or injected with streptozotocin (STZ, i.p., 40 mg/kg) for 5 consecutive days starting from the first day of experiment. Mice fed with a control diet (CT, methionine: 0.37% w/w) and injected with vehicle (50 mM citrate buffer) served as controls. Aortic cryo-cross sections (30 μm) from Cbs^−/+ mice were stained with the superoxide marker dihydroethidium (DHE, 3 μmol/L, 30 mins.). Urine was collected from 24 hrs metabolic cage. (FIG. 5D). Endothelium-dependent vascular relaxation in HHcy/HG CBS^−/+ mouse aorta in the presence of antioxidants. Arterial rings were pre-contracted with phenylephrine (1 μmol/L) and examined for relaxation to cumulative additions of ACh in the aorta of STZ-treated Cbs^−/+ mice on HM diet. The arterial rings were preincubated with antioxidants polyethylene glycol superoxide dismutase (PEG-SOD, 150 U/mL, Sigma #S9549), Tempol (1 mmol/L, Sigma #176141), or apocynin (10 μmol/L, Sigma #W508454) for 1 hr. n=3-5. *p<0.05 vs vehicle-treated Cbs^−/+ mice on CT diet; †p<0.05 vs vehicle-treated Cbs^−/+ mice on HM diet; ‡p<0.05 vs STZ-treated Cbs^−/+ mice on CT diet; #p<0.05 vs STZ-treated Cbs^−/+ mice on HM diet. (FIG. 5E). […] Calpain activity was measured by the fluorescent substrate t-BOC-Leu-Met-CMAC (T-BOC, 10 μmol/L, 30 min) Human aortic endothelial cells (HAECs, passage 8-9) were cultured in EC medium which contains 5 mmol/L D-glucose (D-Glu), treated with DL-homocysteine (DL-Hcy, 500 μmol/L) and/or D-Glu (25 mmol/L) with or without […] (150 U/mL) or MDL28170 (MDL, 20 μmol/L) for 48 hrs, or CTsiRNA and μ-calpsiRNA for 72 hrs. […] Transfection effect of μ-calpsiRNA in HAECs was detected by Western blot after transfected with the siRNA for indicated time. […]
# [2] = tested on: eNOS-pThr495; assay: eNOS-pThr495 protein levels in HAECs; details: for eNOS-pThr497/495 levels increase: HAECs, DL-Hcy 500 μmol/L or D-Glu 25 mmol/L
# Procedure: (FIG. 7A). eNOS protein levels in mouse aorta of Cbs^−/+ mice (Left Panel) and HAECs (Right Panel). (FIG. 7B). eNOS-pThr497/495 protein levels in mouse aorta of Cbs^−/+ mice (Left Panel) and in HAECs (Right Panel). At the age of 8-week, Cbs^−/+ mice were fed with a high methionine diet (HM, methionine: 2% w/w) for 8 weeks, and/or injected with streptozotocin (STZ, i.p., 40 mg/kg) for 5 consecutive days starting from the first day of experiment. Mice fed with a control diet (CT, methionine: 0.37% w/w) and injected with vehicle (50 mmol/L citrate buffer) served as controls. Human aortic endothelial cells (HAECs, passage 8-9) were cultured in EC medium which contains 5 mmol/L D-glucose (D-Glu), treated with DL-homocysteine (DL-Hcy, 500 μmol/L) and/or D-Glu (25 mmol/L). (FIG. 7C). eNOS-pThr495 protein levels in HAECs. HAECs (passage 8-9) were cultured in EC medium which contains 5 mmol/L D-glucose (D-Glu), treated with DL-homocysteine (DL-Hcy, 500 μmol/L) and D-Glu (25 mmol/L for 48 hrs with or without non-specific PKC inhibitor GF109203X (GFX) (2 μmol/L, 30 min.); control adenoviruse (Ad-CT, 200 MOI, 72 hrs), dominant negative PKCβ2 adenovirus (Adv-dnPKCβ2, 200 MOI, 72 hrs); μ-calpain siRNA (μ-calpsiRNA, Santa Cruz #sc-29885, 72 hrs), or MDL ([…], 48 hrs, Sigma #M6690). (FIG. 7D). Transfection effect of Adv-dnPKCβ2in HAECs. Cultured HAECs (passage 8, 80% confluence) were treated with 12.5, 25, 50, 100 and 200 MOI Adv-dnPKCβ2 for 48 hrs. n=3, *p<0.05 vs control; †p<0.05 vs DL-Hcy-treated HAECs; ‡p<0.05 vs D-Glu-treated HAECs; #p<0.05 vs DL-Hcy/D-Glu-treated HAECs. Cbs, cystathionine β-synthase; eNOS, endothelial nitric oxide synthase; eNOS-pThr495/497, phosphorylation of eNOS at threonine 497 (mouse)/495 (human).
# Human aortic endothelial cells (HAECs) were cultured in cell culture medium (M199, HyClone) as previously described (Wang et al., 1997, J Biol Chem 272:25380-25385). The HAECs were treated with DL-Hcy (200 or 500 μmol/L) and/or D-glucose (D-Glu, 25 mmol/L) for 24 or 48 hrs in the presence or absence of selected pharmacological inhibitors or siRNA or adenovirus.
# [3] = tested on: eNOS; assay: eNOS protein levels in HAECs
# Procedure: (FIG. 7A). eNOS protein levels in mouse aorta of Cbs^−/+ mice (Left Panel) and HAECs (Right Panel). (FIG. 7B). eNOS-pThr497/495 protein levels in mouse aorta of Cbs^−/+ mice (Left Panel) and in HAECs (Right Panel). At the age of 8-week, Cbs^−/+ mice were fed with a high methionine diet (HM, methionine: 2% w/w) for 8 weeks, and/or injected with streptozotocin (STZ, i.p., 40 mg/kg) for 5 consecutive days starting from the first day of experiment. Mice fed with a control diet (CT, methionine: 0.37% w/w) and injected with vehicle (50 mmol/L citrate buffer) served as controls. Human aortic endothelial cells (HAECs, passage 8-9) were cultured in EC medium which contains 5 mmol/L D-glucose (D-Glu), treated with DL-homocysteine (DL-Hcy, 500 μmol/L) and/or D-Glu (25 mmol/L). (FIG. 7C). eNOS-pThr495 protein levels in HAECs. […]
Compound,calpain activity increase [1] [fold],eNOS-pThr497/495 levels increase [2] [fold],"decrease of eNOS protein levels ([3]; DL-Hcy 500 μmol/L, 48 hrs) [%]","effect on eNOS protein levels ([3]; D-Glu 25 mmol/L, in the presence or absence of DL-Hcy)","HHcy/HG-induced eNOS-pThr495 ([2]; HAECs with DL-Hcy 500 μmol/L and D-Glu 25 mmol/L 48 hrs, GFX 2 μmol/L 30 min, MDL 20 mmol/L 48 hrs, Adv-dnPKCβ2 200 MOI 72 hrs, siRNA 72 hrs)"
"NC(CCS)C(=O)O (racemic) [DL-Hcy, DL-homocysteine]",1.8,1.6,59,,
"O=C[C@H](O)[C@@H](O)[C@H](O)[C@H](O)CO [D-Glu, D-glucose]",2.3,1.5,,no effect,
MDL28170,,,,,completely rescued
